Source: patent US6384080B1, “Anthranilic acid derivatives as inhibitors of the cGMP-phosphodiesterase” (Fujisawa Pharmaceutical Co., Ltd., priority 1998, dated 2002)

What was measured:
human platelet PDE-V = biological target: T1, human platelet PDE-V (Homo sapiens, UniProt O76074); assay: cGMP-Phosphodiesterase (PDE) assay, enzymatic inhibitory test; assay type: biochemical; settings: human platelet PDE-V; 0.1 μM [3H]-cGMP substrate, 30° C., 10 minutes; read-out: Inhibitory activity IC50
T1 construct: Human platelet cGMP-PDE was separated from other isozymes in human platelets; from tissue; host or cells: human platelets
Procedure: cGMP-Phosphodiesterase (PDE) Assay
Human platelet cGMP-PDE was separated from other isozymes in human platelets by a modification of the method of Thompson et. al. (see Cyclic Nucleotide Phosphodiesterase (PDE), in Methods of Enzymatic analysis, Vol 4, p127-234, 1984). In enzyme inhibition assays, the test compounds were dissolved in DMSO and then diluted with assay buffer (50 mM Tris-HCl, 0.077 mg/ml dithiothreitol and 10 mg/ml snake venom, 1 mM EGTA, pH 8.0), at final concentrations ranging from 10^−10 to 10^−6 M. Assays were performed at 0.1 μM substrate ([^3H]-cGMP) concentration, at 30° C. for 10 minutes using enzyme dilutions which gave 10-20% hydrolysis of substrate. Each assay was initiated by addition of substrate and terminated by addition of anion exchange resin (Dowex® 1-X8, 250 mg/mg) followed by centrifugation for 10 minutes (3000 rpm, at 4° C.). Radioactivity of supernatant (^3H-GMP) was assayed by liquid scintillation counting.

Structure (SMILES)	melting point [°C]	IC50 (human platelet PDE-V) [nM]
COc1ccc(CNC(=O)c2cc([N+](=O)[O-])ccc2N[C@@H]2CCC[C@H]2O)cc1OC (relative stereo) [Example 67, N-(3,4-Dimethoxybenzyl)-2-(trans-2-hydroxycyclopentylamino)-5-nitrobenzamide]	154 to 155	
CC[C@@H](CO)Nc1ccc([N+](=O)[O-])cc1C(=O)NCc1ccc2c(c1)OCO2 [2(1), (S)-2-[1-(Hydroxymethyl)propylamino]-5-nitro-N-(1,3-benzodioxol-5-ylmethyl)benzamide]	128 to 130	
O=C(NCc1ccc(-c2ccccc2)cc1)c1cc([N+](=O)[O-])ccc1N[C@H]1CC[C@@H](O)CC1 [2-(cis-4-Hydroxycyclohexylamino)-5-nitro-N-(4-phenylbenzyl)benzamide]	168 to 170	< 10
CCCCC(CO)Nc1ccc([N+](=O)[O-])cc1C(=O)NCc1ccc2c(c1)OCO2 (centres unmarked) [2-[1-(1-Hydroxymethyl)pentylamino]-5-nitro-N-(1,3-benzodioxol-5-ylmethyl)benzamide]	112 to 115	< 10
COc1ccc(CNC(=O)c2cc([N+](=O)[O-])ccc2N[C@H]2CC[C@@H](OC(C)=O)CC2)cc1OC [2-[cis-4-(acetoxy)cyclohexylamino]-N-(3,4-dimethoxybenzyl)-5-nitrobenzamide]	147 to 148	< 10
COc1ccc(CNC(=O)c2cc(C#N)ccc2N[C@@H](C)CO)cc1OC [88(1), (S)-5-Cyano-N-(3,4-dimethoxybenzyl)-2-(2-hydroxy-1-methylethylamino)benzamide]	142 to 143.5	
COc1ccc(CNC(=O)c2cc(S(=O)(=O)N3CCN(C(=O)OC(C)(C)C)CC3)ccc2N[C@H]2CC[C@H](O)CC2)cc1OC [153(1), 5-[4-(tert-Butoxycarbonyl)piperazin-1-ylsulfonyl]-N-(3,4-dimethoxybenzyl)-2-(trans-4-hydroxycyclohexylamino)benzamide]	221 to 222	
COc1ccc(CNC(=O)c2cc(S(=O)(=O)N3CCNCC3)ccc2N[C@H]2CC[C@H](O)CC2)cc1OC [153(2), N-(3,4-Dimethoxybenzyl)-2-(trans-4-hydroxycyclohexylamino)-5-(piperazinosulfonyl)benzamide]	108 to 110	
COc1ccc(CNC(=O)c2cc([N+](=O)[O-])ccc2NC2CC=CCC2)cc1F (centres unmarked) [153(3), 2-(3-cyclohexenylamino)-N-(3-fluoro-4-methoxybenzyl)-5-nitrobenzamide]	140	
C[C@H](CO)Nc1ccc([N+](=O)[O-])cc1C(=O)NCc1ccc(Oc2ccccc2)cc1 [(R)-2-(2-Hydroxy-1-methylethyl)amino-5-nitro-N-(4-phenoxybenzyl)benzamide]	127 to 129	< 10
Cc1ccc(CNC(=O)c2cc([N+](=O)[O-])ccc2N[C@@H](C)CO)cc1Cl [(S)-N-(3-Chloro-4-methylbenzyl)-2-(2-hydroxy-1-methylethylamino)-5-nitrobenzamide]	178 to 179	< 10
O=C(NCc1ccc2c(c1)OCO2)c1cc([N+](=O)[O-])ccc1N[C@H]1CC[C@H](O)CC1 [Example 1(1), 2-(trans-4-hydroxycyclohexylamino)-5-nitro-N-(1,3-benzodioxol-5-ylmethyl)benzamide]	205 to 206	
C[C@H](CO)Nc1ccc([N+](=O)[O-])cc1C(=O)NCc1ccc2c(c1)OCO2 [Example 7, (R)-2-(2-Hydroxy-1-methylethylamino)-5-nitro-N-(1,3-benzodioxol-5-ylmethyl)benzamide]	166 to 168	
O=C(NCc1ccccc1)c1cc([N+](=O)[O-])ccc1N[C@H]1CC[C@H](O)CC1 [Example 51, N-benzyl-2-(trans-4-hydroxycyclohexylamino)-5-nitrobenzamide]	233 to 234	
O=C(NCc1ccccc1)c1cc([N+](=O)[O-])ccc1NC(CO)CO [Example 55, N-Benzyl-2-[2-hydroxy-1-(hydroxymethyl)ethylamino]-5-nitrobenzamide]	171 to 173	
CC[C@@H](CO)Nc1ccc([N+](=O)[O-])cc1C(=O)NCc1ccc(OC)c(OC)c1 [Example 65, (S)-N-(3,4-Dimethoxybenzyl)-2-[1-(hydroxymethyl)-propylamino]-5-nitrobenzamide]	168 to 169	
COc1ccc(CNC(=O)c2cc([N+](=O)[O-])ccc2NC(C)(C)CO)cc1OC [Example 66, N-(3,4-Dimethoxybenzyl)-2-(2-hydroxy-1,1-dimethyl-ethylamino)-5-nitrobenzamide]	161 to 162	
COc1ccc(CNC(=O)c2cc([N+](=O)[O-])ccc2N[C@@H](C)CO)cc1OC [Example 68, (S)-N-(3,4-Dimethoxybenzyl)-2-(2-hydroxy-1-methyl-ethylamino)-5-nitrobenzamide]	131 to 132	
COc1ccc(CNC(=O)c2cc([N+](=O)[O-])ccc2NNCC(F)(F)F)cc1OC [Example 69, N-(3,4-Dimethoxybenzyl)-5-nitro-2-[2-(2,2,2-trifluoroethyl)hydrazino]benzamide]	140 to 142	
COc1ccc(CNC(=O)c2cc([N+](=O)[O-])ccc2Nc2ccc3[nH]cnc3c2)cc1OC [Example 80, 2-(1H-Benzimidazol-5-ylamino)-N-(3,4-dimethoxybenzyl)-5-nitrobenzamide]	226.5 to 227	
COc1ccc(CNC(=O)c2cc(-c3ncc[nH]3)ccc2N[C@H]2CC[C@H](O)CC2)cc1OC [Example 90, N-(3,4-Dimethoxybenzyl)-2-(trans-4-hydroxycyclohexylamino)-5-(1H-imidazol-2-yl)benzamide]	189 to 190	
COc1cc(CNC(=O)c2cc([N+](=O)[O-])ccc2NC(CO)CO)ccc1Cl [Example 91, N-(4-Chloro-3-methoxybenzyl)-2-[2-hydroxy-1-(hydroxymethyl)ethylamino]-5-nitrobenzamide]	176 to 177	
COc1cc(CNC(=O)c2cc(S(C)(=O)=O)ccc2N[C@H]2CC[C@H](O)CC2)ccc1Cl [Example 102, N-(4-Chloro-3-methoxybenzyl)-2-(trans-4-hydroxycyclohexylamino)-5-methanesulfonylbenzamide]	234 to 235.5	
COc1cc(CNC(=O)c2cc([N+](=O)[O-])ccc2N[C@@H](C)CO)cc(OC)c1 [Example 107, (S)-N-(3,5-Dimethoxybenzyl)-2-(2-hydroxy-1-methylethyl)amino-5-nitrobenzamide]	98 to 101	
Cc1ccc(CNC(=O)c2cc([N+](=O)[O-])ccc2N[C@H]2CC[C@@H](O)CC2)cc1C [N-(3,4-Dimethylbenzyl)-2-(cis-4-hydroxycyclohexylamino)-5-nitrobenzamide]	157 to 158	< 10
COc1ccc(CNC(=O)c2cc([N+](=O)[O-])ccc2N[C@@H](CO)CCSC)cc1OC [N-(3,4-dimethoxylbenzyl)-2-[(R)-1-hydroxymethyl-3-(methylthio)propylamino]-5-nitrobenzamide]	150 to 152	< 10
O=C(NCc1ccc(F)c(Cl)c1)c1cc([N+](=O)[O-])ccc1NC(CO)CO [N-(3-Chloro-4-fluorobenzyl)-2-[2-hydroxy-1-(hydroxymethyl)ethylamino]-5-nitrobenzamide]	235 to 238	< 10
